Measurements taken from patent US20250011329A1, “SUBSTITUTED PIPERIDINYL-METHYLPURINE PYRIDINES AND RELATED COMPOUNDS AND THEIR USE IN TREATING DISEASES AND CONDITIONS” (K36 Therapeutics, Inc., priority 2023, published 2025).
pIC50: −log10 of the molar value.

Columns and labels:
recombinant human NSD1 = recombinant human NSD1 (Homo sapiens, UniProt Q96L73); assay: NSD1 inhibitory assay; assay type: biochemical; conditions: 2 nM NSD1, chicken oligonucleosomes 0.05 mg/ml, 3H-SAM 1 μM, 1 hour at 30° C.
Description: An exemplary compound was tested for NSD1 inhibitory activity.
A reaction mixture was prepared by adding oligonucleosomes from Chicken (0.05 mg/ml) to freshly prepared reaction buffer containing 50 mM Tris-HCl (pH 8.5), 50 mM NaCl, 5 mM MgCl2, 0.01% Brij35, 1 mM DTT, and 1% DMSO followed by the addition of recombinant human NSD1 (amino acids 2-end) with N-terminal His tag (2 nM) and gentle mixing. The test compounds were diluted in DMSO, added to the reaction mixture in nanoliter amounts by using Acoustic Technology (Echo 550, LabCyte Inc. Sunnyvale, CA) and incubated for 20 minutes at room temperature. The reaction was initiated by the addition of S-Adenosyl-L-[methyl-^3H] methionine (3H-SAM; 1 μM), and the mixture was incubated for 1 hour at 30° C. The reaction mixture was delivered to filter paper and the methylated substrate was quantified by scintillation counting. Data analysis was performed using Excel and GraphPad Prism software for IC50 curve fits. For additional information on the histone methyltransferase assay, see, for example, Horiuchi K Y, et al., “Assay Development for Histone Methyltransferases,” Assay Drug Dev Technol. 2013 May; 11(4):227-36.

recombinant human NSD2 = recombinant human NSD2 (Homo sapiens (Human), UniProt O96028); assay: NSD2 inhibitory assay (modified RBC HotSpot HMT Assay); assay type: biochemical; conditions: 2 nM NSD2, chicken oligonucleosomes 0.05 mg/ml, 3H-SAM 1 μM, 1 hour at 30° C.
Sequence of recombinant human NSD2 (O96028 2-1365 limits assumed): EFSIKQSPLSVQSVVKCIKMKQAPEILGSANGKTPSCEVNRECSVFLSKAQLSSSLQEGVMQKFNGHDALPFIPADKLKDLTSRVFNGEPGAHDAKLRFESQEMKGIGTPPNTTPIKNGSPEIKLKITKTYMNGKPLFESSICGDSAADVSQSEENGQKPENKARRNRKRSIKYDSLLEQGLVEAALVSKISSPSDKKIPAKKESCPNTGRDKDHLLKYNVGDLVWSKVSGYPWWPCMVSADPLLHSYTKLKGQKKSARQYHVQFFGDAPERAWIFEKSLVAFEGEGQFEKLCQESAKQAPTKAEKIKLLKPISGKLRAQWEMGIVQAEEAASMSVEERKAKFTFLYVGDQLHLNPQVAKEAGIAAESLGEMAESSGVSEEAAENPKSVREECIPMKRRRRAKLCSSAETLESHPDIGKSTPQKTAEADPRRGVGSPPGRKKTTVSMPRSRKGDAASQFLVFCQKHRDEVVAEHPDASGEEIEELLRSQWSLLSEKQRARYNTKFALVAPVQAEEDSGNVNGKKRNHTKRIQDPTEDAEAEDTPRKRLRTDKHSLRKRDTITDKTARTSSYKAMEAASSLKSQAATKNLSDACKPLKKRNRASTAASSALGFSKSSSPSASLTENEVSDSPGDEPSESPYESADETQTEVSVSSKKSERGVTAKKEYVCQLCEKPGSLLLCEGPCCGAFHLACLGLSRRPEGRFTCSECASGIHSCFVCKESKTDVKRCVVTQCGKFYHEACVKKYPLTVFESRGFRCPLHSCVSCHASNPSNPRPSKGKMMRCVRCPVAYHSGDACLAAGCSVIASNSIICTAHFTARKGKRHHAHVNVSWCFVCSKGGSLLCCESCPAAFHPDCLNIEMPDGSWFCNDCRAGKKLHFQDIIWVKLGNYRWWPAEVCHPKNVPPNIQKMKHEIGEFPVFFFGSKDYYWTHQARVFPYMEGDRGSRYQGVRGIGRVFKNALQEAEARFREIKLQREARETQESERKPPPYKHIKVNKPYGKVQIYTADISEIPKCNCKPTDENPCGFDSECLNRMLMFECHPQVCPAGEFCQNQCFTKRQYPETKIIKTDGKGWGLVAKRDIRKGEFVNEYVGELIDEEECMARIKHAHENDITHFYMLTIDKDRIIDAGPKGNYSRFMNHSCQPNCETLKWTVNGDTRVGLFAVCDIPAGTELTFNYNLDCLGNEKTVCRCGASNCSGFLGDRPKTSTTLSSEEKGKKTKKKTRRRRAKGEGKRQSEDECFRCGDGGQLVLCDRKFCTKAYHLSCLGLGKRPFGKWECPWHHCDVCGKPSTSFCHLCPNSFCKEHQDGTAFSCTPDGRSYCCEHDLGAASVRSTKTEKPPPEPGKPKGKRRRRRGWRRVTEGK
Description: Exemplary compounds were tested for NSD2 inhibitory activity using a modified RBC HotSpot HMT Assay.
A reaction mixture was prepared by adding oligonucleosomes from Chicken (0.05 mg/ml) to freshly prepared reaction buffer containing 50 mM Tris-HCl (pH 8.5), 50 mM NaCl, 5 mM MgCl2, 0.01% Brij35, 1 mM DTT, and 1% DMSO followed by the addition of recombinant human NSD2, (amino acids 2-end) with N-terminal His tag (2 nM; GenBank Accession No. NM_001042424; MW=155.5 kDa; expressed in Sf9 insect cells) and gentle mixing. The test compounds were diluted in DMSO, added to the reaction mixture in nanoliter amounts by using Acoustic Technology (Echo 550, LabCyte Inc. Sunnyvale, CA) and incubated for 20 minutes at room temperature. The reaction was initiated by the addition of S-Adenosyl-L-[methyl-^3H]methionine (3H-SAM; 1 μM), and the mixture was incubated for 1 hour at 30° C. The reaction mixture was delivered to filter paper and the methylated substrate was quantified by scintillation counting. Data analysis was performed using Excel and GraphPad Prism software for IC50 curve fits. For additional information on the histone methyltransferase assay, see, for example, Horiuchi K Y, et al., “Assay Development for Histone Methyltransferases,” Assay Drug Dev Technol. 2013 May; 11(4):227-36.

Structure (SMILES)	pIC50 (recombinant human NSD1)	pIC50 (recombinant human NSD2)
COC(=O)COc1cc(F)c(-c2cc(Cn3cnc4c(N)ncnc43)c(N3CCC[C@](N)([C@H](O)C(F)F)C3)cn2)cc1F [III-35, methyl 2-(4-(5-((R)-3-amino-3-((S)-2,2-difluoro-1-hydroxyethyl)piperidin-1-yl)-4-((6-amino-9H-purin-9-yl)methyl)pyridin-2-yl)-2,5-difluorophenoxy)acetate]	> 9.00	> 8.70
Nc1ncnc2c1ncn2Cc1cc(-c2cc(F)c(O)cc2F)ncc1N1CCC[C@](N)([C@H](O)C(F)F)C1 [Compound J, 4-(5-((R)-3-amino-3-((S)-2,2-difluoro-1-hydroxyethyl)piperidin-1-yl)-4-((6-amino-9H-purin-9-yl)methyl)pyridin-2-yl)-2,5-difluorophenol]	–	7.70 to 8.70
